“Also recorded” adds a separate entry of the source.
Experiments:
[1] = tested on: Tp 242 MG glioblastoma cells; test: 3H-thymidine assay; assay type: cell-based; details: Homo sapiens
[2] = tested on: Daudi leukemic cells; test: 3H-thymidine assay; assay type: cell-based; details: Homo sapiens
[3] = tested on: U 178 MG, TP 410 N, TP 242 MG, TP 336 MG and A 431 cells; test: growth curves of five tumor cell lines, comparison with coumarin; assay type: cell-based, human; details: corresponding concentrations, up to 12 days
Description: (§1) The neuroblastoma cell line and the three glioblastoma cell lines were cultivated in Ham's F10 medium enriched with 10% fetal calf serum (FCS) and the usual quantity of penicillin, streptomycin (Pen/Strep) and glutamine. The epidermoidal cell line was cultivated in modified Eagle's Medium (MEM), likewise enriched with 10% (FCS) and the usual quantity of glutamine and Pen/Strep.
(§2) In each case 5×10^4 cells were plated out in T25 bottles, the untreated cells being incubated in analogous conditions as control. The cell count was microscopically determined after 3, 5, 7, 10 and 12 days.

[4] = tested on: LNCap cells; test: cell growth in combination with testosterone; assay type: cell-based, human
[5] = tested on: PDFG-B gene; test: transcription (mRNA level); assay type: cell-based; details: Seliger et al., unpublished results; FIG. 8
Text: (§3) In connection with the neoplastic transformation and increased proliferation rate of glioblastoma cells, two autocrinic loops, the EGF and the PDGF system, are discussed.

[6] = tested on: PDFG-A gene; test: transcription (mRNA level); assay type: cell-based; details: Seliger et al., unpublished results; FIG. 8
Text: as §3

[7] = tested on: DUKX cells; test: growth inhibition of c-myc-expressing tumor cells; assay type: cell-based, Chinese hamsters
Text: a) DUKX cells (ovarian carcinoma cells from Chinese hamsters) which over-express "c-myc" products, were cultivated according to standard conditions, two comparative groups being grown.

[8] = tested on: g-UVW cells; test: antineoplastic effect on human anaplastic astrocytoma cells (Table 1, Example 3); assay type: cell-based
Text: The process as per Example 2 was repeated with the exception that cells of the 6-UVW line from human anaplastic astrocytoma were used and enriched in DMEM:HAM's F 12 medium (1:1) with L-glutamine and 10% FCS.

[9] = tested on: G-361 melanoma cells; test: 3H-thymidine assay; assay type: cell-based; details: Homo sapiens, G-361
[10] = tested on: brain-tumor cells (glioblastoma cells); test: growth inhibition of brain-tumor cells; assay type: cell-based; details: Tables 1 to 3
[11] = tested on: g-CCM cells; test: growth inhibition of anaplastic astrocytoma cells (Table 1); assay type: cell-based, human; details: 200 μmol/ml, after 10 days
[12] = tested on: Z-R-75-1 breast cancer cells; test: 3H-thymidine assay; assay type: cell-based; details: Homo sapiens, ZR-75-1
[13] = tested on: MCF 7 cells; test: growth inhibition of breast cancer cells (Table 1, Example 2); assay type: cell-based, human
Text: The MCF 7 cell line from breast cancer was cultivated in DMEM-S 10, enriched with 10% FCS, for 10 days in the usual way.

[14] = tested on: A-375 melanoma cells; test: 3H-thymidine assay; assay type: cell-based; details: Homo sapiens, A-375
[15] = tested on: A 431 cells; test: growth curve, epidermoidal carcinoma cells; assay type: cell-based, human; details: for Cell count: 10 μM/ml
Description: as §1, §2

[16] = tested on: TP 336 MG cells; test: growth curve, glioblastoma cells; assay type: cell-based, human; details: for Cell count: 10 μM/ml
Description: as §1, §2

[17] = tested on: bladder tumor cells; test: photometric cell count / mitochondrial activity; assay type: cell-based; details: 20 hours, increasing concentrations
Description: (§4) Subsequently the cell count was photometrically determined according to Alley M. C. et al., Cancer Research 48, 589-601 (1988). In the process, a colorant is added to the cells that have been mixed with medium, the colorant being so converted by cells with mitochondrial activity that a photometric determination of the cell count is possible.

[18] = tested on: erythroleukemic cells (K 562); test: photometric cell count / mitochondrial activity; assay type: cell-based; details: 20 hours, increasing concentrations
Description: as §4

[19] = Table 4, read-out: active substance concentration at which 3H-thymidine insertion was 50% inhibited
[20] = 1 μM/ml, read-out: 3H-thymidine tracer (%) of control
[21] = 2 μM/ml, read-out: 3H-thymidine tracer (%) of control
[22] = 4 μM/ml, read-out: 3H-thymidine tracer (%) of control
[23] = 8 μM/ml, read-out: 3H-thymidine tracer (%) of control
[24] = 16 μM/ml, read-out: 3H-thymidine tracer (%) of control
[25] = 25 μM/ml, read-out: 3H-thymidine tracer (%) of control
[26] = 50 μM/ml, read-out: 3H-thymidine tracer (%) of control
[27] = 100 μM/ml, read-out: 3H-thymidine tracer (%) of control
[28] = 250 μM/ml, read-out: 3H-thymidine tracer (%) of control
[29] = 500 μM/ml, read-out: 3H-thymidine tracer (%) of control
[30] = Table 4, *: maximum usable dosage, no 50% inhibition, read-out: active substance concentration at which 3H-thymidine insertion was 50% inhibited

SMILES: O=c1ccc2ccc(O)cc2o1 [7-OH-1,2-BP, 7-hydroxy-1,2-benzopyrone]
- activity at 1 µM ([1]; 1 μM/ml, read-out: 3H-thymidine insertion (%) of control): 93%
- activity at 2 µM ([1]; 2 μM/ml, read-out: 3H-thymidine insertion (%) of control): 91%
- activity at 4 µM ([1]; 4 μM/ml, read-out: 3H-thymidine insertion (%) of control): 91%
- activity at 8 µM ([1]; 8 μM/ml, read-out: 3H-thymidine insertion (%) of control): 84%
- activity at 16 µM ([1]; 16 μM/ml, read-out: 3H-thymidine insertion (%) of control): 73%
- activity at 25 µM ([1]; 25 μM/ml, read-out: 3H-thymidine insertion (%) of control): 55%
- activity at 50 µM ([1]; 50 μM/ml, read-out: 3H-thymidine insertion (%) of control): 43%
- activity at 100 µM ([1]; 100 μM/ml, read-out: 3H-thymidine insertion (%) of control): 39%
- activity at 250 µM ([1]; 250 μM/ml, read-out: 3H-thymidine insertion (%) of control): 35%
- activity at 500 µM ([1]; 500 μM/ml, read-out: 3H-thymidine insertion (%) of control): 32%
- IC50 [1, 19]: 25 µM
- activity at 1 µM [2, 20]: 98%
- activity at 2 µM [2, 21]: 89%
- activity at 4 µM [2, 22]: 82%
- activity at 8 µM [2, 23]: 76%
- activity at 16 µM [2, 24]: 63%
- activity at 25 µM [2, 25]: 54%
- activity at 50 µM [2, 26]: 49%
- activity at 100 µM [2, 27]: 38%
- activity at 250 µM [2, 28]: 35%
- activity at 500 µM [2, 29]: 28%
- IC50 [2, 19]: 50 µM
- growth-inhibiting activity (growth curve) versus control [3]: developed growth-inhibiting activity
- inhibition of cell growth ([4]; 500 μM 7-OH-1,2-BP/ml medium combined with 20 nM testosterone): virtually complete inhibition of cell growth
- increase of growth inhibition by additional hormone therapy ([4]; for example testosterone): can be increased by additional hormone therapy
- transcription of gene coding for PDFG-B (mRNA level) [5]: inhibited
- transcription of gene coding for PDFG-A (mRNA level) [6]: inhibited
- inhibition of cell growth ([7]; 100 μg/ml, 24, 48 and 72 hours, FIG. 10): dramatic inhibition of cell growth; also recorded: inhibit the cell growth of tumor cells with oncogene-overexpression
- cell growth after removal of substance ([7]; 24 hours, then 48 hours in 7-OH-1,2-BP-free medium, FIG. 11b1): considerable cell growth
- inhibition of cell growth, second cultivation in presence of substance ([7]; 24 hours, trypsin, then 48 hours in 7-OH-1,2-BP-containing medium, FIG. 11b2): cell growth was virtually completely inhibited
- % Growth inhibition compared with control ([8]; 200 μmol/ml, after 10 days): 40%
- cytostatic effect on human anaplastic astrocytoma cells ([8]; Example 3, FIG. 2): has a cytostatic effect on human anaplastic astrocytoma cells
- activity at 1 µM [9, 20]: 94%
- activity at 2 µM [9, 21]: 91%
- activity at 4 µM [9, 22]: 77%
- activity at 8 µM [9, 23]: 77%
- activity at 16 µM [9, 24]: 74%
- activity at 25 µM [9, 25]: 68%
- activity at 50 µM [9, 26]: 58%
- activity at 100 µM [9, 27]: 53%
- activity at 250 µM [9, 28]: 42%
- activity at 500 µM [9, 29]: 38%
- IC50 [9, 30]: 125 µM
- growth-inhibiting effect on brain-tumor cells [10]: strong growth-inhibiting effect on brain-tumor cells
- % Growth inhibition compared with control [11]: 44%
- activity at 1 µM [12, 20]: 96%
- activity at 2 µM [12, 21]: 91%
- activity at 4 µM [12, 22]: 82%
- activity at 8 µM [12, 23]: 73%
- activity at 16 µM [12, 24]: 65%
- activity at 25 µM [12, 25]: 55%
- activity at 50 µM [12, 26]: 49%
- activity at 100 µM [12, 27]: 43%
- activity at 250 µM [12, 28]: 39%
- activity at 500 µM [12, 29]: 27%
- IC50 [12, 30]: 50 µM
- % Growth inhibition compared with control ([13]; 200 μmol/ml, after 10 days): 64%
- cytostatic effect on breast cancer cells ([13]; Example 2, FIG. 1): clearly show the cytostatic effect
- activity at 1 µM [14, 20]: 100%
- activity at 2 µM [14, 21]: 92%
- activity at 4 µM [14, 22]: 86%
- activity at 8 µM [14, 23]: 81%
- activity at 16 µM [14, 24]: 72%
- activity at 25 µM [14, 25]: 64%
- activity at 50 µM [14, 26]: 53%
- activity at 100 µM [14, 27]: 49%
- activity at 250 µM [14, 28]: 47%
- activity at 500 µM [14, 29]: 44%
- IC50 [14, 30]: 100 µM
- Cell count ([15]; after 3 days, control 6): 4 × 10^4
- Cell count ([15]; after 5 days, control 24): 10 × 10^4
- Cell count ([15]; after 7 days, control 45): 3 × 10^4
- Cell count ([15]; after 10 days, control 56): 12 × 10^4
- Cell count ([15]; after 12 days, control 87): 21 × 10^4
- inhibition at 10 µM ([15]; Homo sapiens, A-431, 288 h, 10 μM/ml (Table 2), read-out: % growth inhibition compared with control after 12 days): 76%
- Cell count ([16]; after 3 days, control 13): 7 × 10^4
- Cell count ([16]; after 5 days, control 25): 11 × 10^4
- Cell count ([16]; after 7 days, control 39): 22 × 10^4
- Cell count ([16]; after 10 days, control 34): 18 × 10^4
- Cell count ([16]; after 12 days, control 45): 18 × 10^4
- inhibition at 10 µM ([16]; Homo sapiens, 288 h, 10 μM/ml (Table 2), read-out: % growth inhibition compared with control after 12 days): 60%
- inhibition of mitochondrial activity [17]: a dosage-related inhibition of the mitochondrial activity occurs
- inhibition of mitochondrial activity [18]: a dosage-related inhibition of the mitochondrial activity occurs

— patent US5525626A (priority 1989, dated 1996)
